This passage reports IC50 results from US11292801B2, “Calpain modulators and therapeutic uses thereof” (Blade Therapeutics, Inc., priority 2016, dated 2022).

In one assay the target is T1, Human Calpain 9/NS1 (Homo sapiens, UniProt O14815).
T1 sequence (O14815 1-690): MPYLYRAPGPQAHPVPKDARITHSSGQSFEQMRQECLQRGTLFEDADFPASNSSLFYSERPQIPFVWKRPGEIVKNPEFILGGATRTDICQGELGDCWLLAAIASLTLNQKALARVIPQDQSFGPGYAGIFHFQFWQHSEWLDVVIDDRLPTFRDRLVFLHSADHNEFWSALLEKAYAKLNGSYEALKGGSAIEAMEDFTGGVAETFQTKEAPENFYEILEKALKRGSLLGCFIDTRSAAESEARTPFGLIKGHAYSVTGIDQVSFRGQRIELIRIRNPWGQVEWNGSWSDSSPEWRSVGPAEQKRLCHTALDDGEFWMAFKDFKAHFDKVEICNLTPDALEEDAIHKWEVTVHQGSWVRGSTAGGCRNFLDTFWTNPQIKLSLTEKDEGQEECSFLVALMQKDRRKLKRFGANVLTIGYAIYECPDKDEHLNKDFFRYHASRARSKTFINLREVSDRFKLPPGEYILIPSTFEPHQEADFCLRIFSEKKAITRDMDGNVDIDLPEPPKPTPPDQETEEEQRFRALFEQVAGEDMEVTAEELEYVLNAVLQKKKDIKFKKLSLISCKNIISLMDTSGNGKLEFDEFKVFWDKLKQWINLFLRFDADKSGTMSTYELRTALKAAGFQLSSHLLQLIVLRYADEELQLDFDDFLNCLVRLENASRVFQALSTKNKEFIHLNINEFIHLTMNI
T1 sequence (P04632 1-268 partner): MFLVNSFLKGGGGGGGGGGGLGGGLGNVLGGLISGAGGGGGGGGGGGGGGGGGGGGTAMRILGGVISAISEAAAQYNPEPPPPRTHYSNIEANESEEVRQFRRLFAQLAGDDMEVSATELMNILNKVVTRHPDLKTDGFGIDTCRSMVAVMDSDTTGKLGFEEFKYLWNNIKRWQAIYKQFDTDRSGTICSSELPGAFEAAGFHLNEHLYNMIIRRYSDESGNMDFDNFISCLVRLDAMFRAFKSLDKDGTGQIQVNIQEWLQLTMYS
The assay can be described thus: Biochemical inhibition of calpain 9, continuous fluorescence (FRET substrate) assay. As to conditions: mean, read-out: Human Calpain 9/NS1 IC50 (nM)_MEAN. The protocol:
(§1) Calpain 1, 2, and 9 activity and inhibition thereof are assessed by means of a continuous fluorescence assay. The SensoLyte 520 Calpain substrate (Anaspec Inc) is optimized for detecting calpain activity. This substrate contains a novel internally quenched 5-FAM/QXL™ 520 FRET pair. Calpains 1, 2, and 9 cleave the FRET substrate into two separate fragments resulting in an increase of 5-FAM fluorescence that is proportional to calpain activity.
(§2) Assays are typically setup in black 384-well plates using automated liquid handling as follows. Calpain assay base buffer typically contains 50 mM Tris, pH˜7.5, 100 mM NaCl and 1 mM DTT. Inhibitors are serially diluted in DMSO and used to setup 2× mixtures with calpains in the aforementioned buffer. After incubation at ambient temperature (25C), the reaction is initiated by adding a 2× mix of the fluorescent peptide substrate and CaCl2) (required for in-situ calpain activation) in the same buffer. Reaction progress curve data are typically collected for 10 min using excitation/emission wavelengths of 490 nm/520 nm on SpectraMax i3× or the FLIPR-Tetra plate readers (Molecular Devices Inc). Reaction rates were calculated from progress curve slopes typically over 1-5 min. Dose response curves (rate vs. log inhibitor concentration) were typically fit to a 4-parameter logistic function to extract IC50 values.

The target in the next assay is T2, Human Calpain 2/NS1 (Homo sapiens, UniProt P17655).
T2 sequence (P17655 1-700): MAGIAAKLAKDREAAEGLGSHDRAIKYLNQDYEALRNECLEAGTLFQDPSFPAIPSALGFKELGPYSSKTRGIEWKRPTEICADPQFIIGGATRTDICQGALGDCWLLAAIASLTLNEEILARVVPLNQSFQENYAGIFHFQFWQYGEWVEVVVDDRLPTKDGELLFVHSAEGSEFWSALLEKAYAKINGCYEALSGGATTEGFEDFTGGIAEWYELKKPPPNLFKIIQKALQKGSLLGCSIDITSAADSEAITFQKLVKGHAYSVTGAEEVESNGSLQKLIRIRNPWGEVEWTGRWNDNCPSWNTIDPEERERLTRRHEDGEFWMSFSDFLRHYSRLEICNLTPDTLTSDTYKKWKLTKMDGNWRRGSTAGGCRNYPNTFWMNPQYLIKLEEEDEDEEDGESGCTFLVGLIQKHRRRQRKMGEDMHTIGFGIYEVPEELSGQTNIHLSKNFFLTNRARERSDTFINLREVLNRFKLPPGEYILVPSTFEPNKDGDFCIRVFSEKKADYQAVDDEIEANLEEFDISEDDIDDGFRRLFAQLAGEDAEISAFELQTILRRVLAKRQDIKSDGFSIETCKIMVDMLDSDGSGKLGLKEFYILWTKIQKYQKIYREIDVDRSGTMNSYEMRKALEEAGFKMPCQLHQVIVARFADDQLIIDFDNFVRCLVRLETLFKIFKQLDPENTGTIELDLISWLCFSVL
T2 sequence (P04632 1-268 partner): T1 sequence (P04632 1-268 partner)
Description: Biochemical inhibition of calpain 2, continuous fluorescence (FRET substrate) assay. As to conditions: mean, read-out: Human Calpain 2/NS1 IC50 (nM)_MEAN. How it is done:
as §1, §2

The next assay deals with T3, Human Calpain 1/NS1 (Homo sapiens, UniProt P07384).
T3 sequence (P07384 1-714): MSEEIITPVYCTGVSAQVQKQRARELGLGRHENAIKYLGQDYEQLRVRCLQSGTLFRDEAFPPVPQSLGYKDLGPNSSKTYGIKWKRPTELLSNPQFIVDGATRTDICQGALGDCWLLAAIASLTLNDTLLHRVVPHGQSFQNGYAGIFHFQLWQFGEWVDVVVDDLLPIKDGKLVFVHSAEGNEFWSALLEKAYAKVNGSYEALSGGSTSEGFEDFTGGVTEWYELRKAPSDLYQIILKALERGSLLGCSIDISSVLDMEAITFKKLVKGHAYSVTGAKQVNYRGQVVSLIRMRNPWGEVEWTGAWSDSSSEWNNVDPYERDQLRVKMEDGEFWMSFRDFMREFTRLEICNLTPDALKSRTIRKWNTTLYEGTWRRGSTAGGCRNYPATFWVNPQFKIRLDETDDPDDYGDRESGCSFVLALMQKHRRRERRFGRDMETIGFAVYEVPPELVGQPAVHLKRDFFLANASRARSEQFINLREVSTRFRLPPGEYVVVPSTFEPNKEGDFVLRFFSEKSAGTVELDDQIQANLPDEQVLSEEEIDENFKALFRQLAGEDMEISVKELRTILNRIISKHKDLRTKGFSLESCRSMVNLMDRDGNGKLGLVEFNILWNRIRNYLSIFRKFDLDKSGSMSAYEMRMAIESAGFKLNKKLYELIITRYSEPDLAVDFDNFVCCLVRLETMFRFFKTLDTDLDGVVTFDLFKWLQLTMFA
T3 sequence (P04632 1-268 partner): T1 sequence (P04632 1-268 partner)
The assay can be described thus: Biochemical inhibition of calpain 1, continuous fluorescence (FRET substrate) assay. As to conditions: mean, read-out: Human Calpain 1/NS1 IC50 (nM)_MEAN. The protocol: as §1, §2

Regarding `NC(=O)C(=O)[C@@H]1CCCCCCOc2ccnc(c2)-c2ccccc2C(=O)N1` [Compound 132, (S)-2-oxo-2-(3-oxo-12-oxa-4-aza-1(2,4)-pyridina-2(1,2)-benzenacyclododecaphane-5-yl)acetamide], the IC50 on Human Calpain 9/NS1, at Human Calpain 2/NS1 and at Human Calpain 1/NS1 was less than 3000 nM throughout.

Turning to `Cc1cccc(C)c1NC(=O)C(=O)[C@@H]1C/C=C\COCCOCc2ccccc2C(=O)N1` [Compound 61, (S,Z)—N-(2,6-dimethylphenyl)-2-oxo-2-(12-oxo-1,3,4,6,9,10,11,12-octahydrobenzo[f][1,4]dioxa[9]azacyclotetradecin-10-yl)acetamide], the IC50 at Human Calpain 9/NS1, on Human Calpain 2/NS1 and on Human Calpain 1/NS1 was greater than 10000 nM throughout.

As to `NC(=O)C(=O)[C@@H]1CCCCCOc2cccc(c2)-c2n[nH]cc2C(=O)N1` [Compound 140, (S)-2-oxo-2-(11-oxo-1H-3-oxa-10-aza-1(3,4)-pyrazola-2(1,3)-benzena-cycloundecaphane-9-yl)acetamide], the IC50 on Human Calpain 9/NS1, at Human Calpain 2/NS1 and at Human Calpain 1/NS1 was less than 3000 nM each time.

Take `O=C[C@@H]1CCCCCCOCc2ccccc2C(=O)N1` [Compound 42, (S)-11-Oxo-1,3,4,5,6,7,8,9,10,11-decahydrobenzo[c][1]oxa[6]azacyclotridecine-9-carbaldehyde]: the IC50 is less than 3000 nM on Human Calpain 9/NS1, less than 3000 nM at Human Calpain 2/NS1 and greater than 10000 nM at Human Calpain 1/NS1.

With `CCNC(=O)C(=O)[C@@H]1Cc2ccc(cc2)OCCCCOc2ccc3c(cnn3-c3ncccc3C(=O)N1)c2` [Compound 47, N-ethyl-2-oxo-2-((5S)-3-oxo-1H-8,13-dioxa-4-aza-1(1,5)-indazola-2(2,3)-pyridina-7(1,4)-benzenacyclotridecaphane-5-yl)acetamide], the IC50 on Human Calpain 9/NS1, at Human Calpain 2/NS1 and on Human Calpain 1/NS1 was less than 3000 nM throughout.

For `O=C(NCCc1cccc(Cl)c1)C(=O)C1CCCCOCCOCc2ccccc2C(=O)N1` (centres unmarked) [Compound 89, N-(3-chlorophenethyl)-2-oxo-2-(12-oxo-1,3,4,6,7,8,9,10,11,12-decahydrobenzo[f][1,4]dioxa[9]azacyclotetradecin-10-yl)acetamide], the IC50 at Human Calpain 9/NS1 was less than 3000 nM; at Human Calpain 2/NS1 it was greater than 10000 nM; at Human Calpain 1/NS1, greater than 10000 nM.

Take `NS(=O)(=O)c1ccc(CNC(=O)C(=O)C2CCCCOCCOCc3ccccc3C(=O)N2)cc1` (centres unmarked) [Compound 84, 2-Oxo-2-(12-oxo-1,3,4,6,7,8,9,10,11,12-decahydrobenzo[f][1,4]dioxa[9]aza-cyclotetradecin-10-yl)-N-(4-sulfamoylbenzyl)acetamide]: the IC50 on Human Calpain 9/NS1 was less than 3000 nM; on Human Calpain 2/NS1, 3000 to 10000 nM; at Human Calpain 1/NS1 it was greater than 10000 nM.

Consider `O=C[C@@H]1Cc2ccccc2C=CCCCCOc2ccccc2C(=O)N1` [Compound 13, (S)-19-Oxo-6,7,8,9,16,17,18,19-octahydrodibenzo[b,h][1]oxa[5]aza-cyclopentadecine-17-carbaldehyde], for which the figures for the IC50 on Human Calpain 9/NS1, at Human Calpain 2/NS1 and on Human Calpain 1/NS1 were 3000 to 10000 nM, less than 3000 nM and 3000 to 10000 nM, respectively.

Consider `COc1cccc(CCNC(=O)C(=O)C2CCCCOCCOCc3ccccc3C(=O)N2)c1` (centres unmarked) [Compound 88, N-(3-methoxyphenethyl)-2-oxo-2-(12-oxo-1,3,4,6,7,8,9,10,11,12-decahydrobenzo[f][1,4]dioxa[9]azacyclotetradecin-10-yl)acetamide], for which the results for the IC50 at Human Calpain 9/NS1, at Human Calpain 2/NS1 and on Human Calpain 1/NS1 were less than 3000 nM, greater than 10000 nM and greater than 10000 nM, respectively.

As to `O=C(NC1CCCC1)C(=O)C1CCCCOCCOCc2ccccc2C(=O)N1` (centres unmarked) [Compound 109, N-cyclopentyl-2-oxo-2-(12-oxo-1,3,4,6,7,8,9,10,11,12-decahydrobenzo[f][1,4]dioxa[9]azacyclotetradecin-10-yl)acetamide], the IC50 at Human Calpain 2/NS1 and at Human Calpain 1/NS1 was greater than 10000 nM in each case.
